Measurements published in patent US8426598B2, “N-heterocyclic M1 receptor positive allosteric modulators” (Merck, Sharp & Dohme, Corp., priority 2008, dated 2013).

Molecular target: T1, acetylcholine muscarinic M1 receptor (CHOnfat/hM1 cells) (Homo sapiens, UniProt P11229)
T1 construct: expressed in transfected cells; host or cells: CHOnfat cells (CHO, Geneticin selection)
T1 sequence (P11229 1-460): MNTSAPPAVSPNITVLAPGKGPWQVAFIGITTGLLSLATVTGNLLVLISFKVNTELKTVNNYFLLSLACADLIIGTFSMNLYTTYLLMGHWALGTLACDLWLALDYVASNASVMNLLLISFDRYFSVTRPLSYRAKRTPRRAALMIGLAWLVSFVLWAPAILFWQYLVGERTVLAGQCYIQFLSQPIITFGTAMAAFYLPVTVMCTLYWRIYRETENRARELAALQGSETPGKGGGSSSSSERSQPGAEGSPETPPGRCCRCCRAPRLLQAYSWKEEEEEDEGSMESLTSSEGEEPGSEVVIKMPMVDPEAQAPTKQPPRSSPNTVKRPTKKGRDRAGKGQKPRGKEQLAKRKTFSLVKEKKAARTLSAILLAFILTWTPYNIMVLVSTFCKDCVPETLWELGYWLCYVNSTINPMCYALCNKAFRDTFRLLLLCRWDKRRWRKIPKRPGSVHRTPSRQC
Assay: muscarinic FLIPR assay: intracellular calcium, potentiation of an EC20 concentration of acetylcholine
Format: cell-based
Conditions: FLIPR Ca2+, 4 min preincubation, then EC20 acetylcholine (3 nM final), read-out: IP Value (inflection point)
Protocol: The assay studies the effect of one or several concentrations of test compounds on basal or acetylcholine-stimulated Ca^2+ levels using FLIPR.
Compounds are prepared and subjected to a preincubation period of 4 min. Thereafter, a single EC20 concentration of acetylcholine is added to each well (3 nM final). The intracellular Ca^2+ level of each sample is measured and compared to an acetylcholine control to determine any modulatory activity.
Cells: CHOnfat/hM1, hM2, hM3 or hM4 cells are plated 24 hr before the assay at a density of 18,000 cells/well (100 μL) in a 384 well plate. CHOnfat/hM1 and CHOnfat/hM3 Growth Medium: 90% DMEM (Hi Glucose); 10% HI FBS; 2 mM L-glutamine; 0.1 mM NEAA; Pen-Strep; and 1 mg/ml Geneticin, are added. For M2Gqi5CHOnfat and M4Gqi5CHOnfat cells, an additional 600 μg/ml hygromycin is added.
Equipment: 384 well plate, 120 μL addition plate; 96-well Whatman 2 ml Uniplate Incubator, 37° C., 5% CO2; Skatron EMBLA-384 Plate Washer; Multimek Pipetting System; Genesis Freedom 200 System; Mosquito System; Temo Nanolitre Pipetting System; and FLIPR^384 Fluorometric Imaging Plate Reader System are used.
Buffers. Assay Buffer: Hanks Balanced Salt Solution, with 20 mM Hepes, 2.5 mM Probenecid (Sigma P-8761) first dissolved in 1 N aqueous NaOH, 1% Bovine Serum Albumin (Sigma A-9647). Dye Loading Buffer: Assay Buffer plus 1% Fetal Bovine Serum and Fluo-4AM/Pluronic Acid Mixture. 2 mM Fluo-4AM ester stock in DMSO (Molecular Probes F-14202) Concentration of 2 μM in buffer for a final concentration of 1 μM in Assay. 20% Pluronic Acid Solution stock, with a concentration of 0.04% in Buffer, 0.02% in Assay.
65 μL of 2 mM Fluo-4AM are mixed with 130 μL of 20% Pluronic Acid. The resulting solution and 650 μL FBS is added to the assay buffer for a total volume of 65 mL. Positive Controls: 4-Br-A23187: 10 mM in DMSO; final concentration 10 μM. Acetylcholine: 10 mM in water, working stock at both 20 μM and 30 μM in assay buffer, final concentration of 10 μM. This is used to check the maximum stimulation of the CHOK1/hM1 cells. 20 μM (2×) acetylcholine is added in the preincubation part of the assay, and the 30 μM (3×) stock is added in the second part. (EC20)Acetylcholine: 10 mM in water, working stock of 9 nM (3×), and final concentration in assay is 3 nM. This is used after the preincubation with test compounds. Addition of the EC20 Acetylcholine to each well with a test compound will ascertain any modulator activity. 24 wells contain 3 nM Acetylcholine alone as a control.
Screening Plate: Compounds are titrated in 96-well plates (columns 2-11), 100% DMSO, started at a concentration of 15 mM (150× stock concentration), and 3-fold serial dilutions using Genesis Freedom200 System. Four 96-well plates are combined into a 384-well plate using Mosquito Nanolitre Pipetting System by transferring 1 μl of serial diluted compounds to each well, and 1 mM acetylcholine (100× stock concentration) were added as a control. Using Temo, 49 μl assay buffer is added to each well of the 384-well plate right before assay.
In a 96-well Whatman 2 ml Uniplate, 9 nM Acetylcholine (3×) is pipetted into wells corresponding to the screening compounds and into control wells. The 30 μM acetylcholine control (3×) is added into control wells and the 3× agonist plate is transferred into a 384-well plate.
Cells are washed three times with 100 μL of buffer, leaving 30 μL of buffer in each well. Using Multimek, 30 μL of Dye Loading Buffer is added into each well and incubated at 37° C., 5% CO2 for up to one hr.
After 60 min, the cells are washed three times with 100 μL of buffer, leaving 30 μL of buffer in each well. The cell plate, screening plate, and agonist addition plates are placed on the platform in the FLIPR and the door is closed. A signal test to check background fluorescence and basal fluorescence signal is performed. Laser intensity is adjusted if necessary. […]

EC50 | Structure (SMILES)
102 nM | O=C(O)c1cn(Cc2ccc(-n3ccnc3)cc2)c2cccc(F)c2c1=O [Example 6]
58 nM | O=C(O)c1cn(Cc2ccc(-n3cnc4ccccc43)cc2)c2c(F)ccc(F)c2c1=O [Example 2]
97 nM | O=C(O)c1cn(Cc2ccc(-n3ncc4ccccc43)cc2F)c2c(F)cccc2c1=O [Example 112]
78 nM | CCOC(=O)c1cn(Cc2ccc(-n3ccc(C(C)O)n3)cc2)c2cccc(F)c2c1=O (centres unmarked) [Example 151, Ethyl 5-fluoro-1-{4-[3-(1-hydroxyethyl)-1H-pyrazol-1-yl]benzyl}-4-oxo-1,4-dihydroquinolin-3-carboxylate]
749 nM | CCOC(=O)c1cn(Cc2ccc(-n3ccc(C(F)F)n3)cc2)c2cccc(F)c2c1=O [Example 153, Ethyl 1-{4-[3-(difluoromethyl)-1H-pyrazol-1-yl]benzyl}-5-fluoro-4-oxo-1,4-dihydroquinoline-3-carboxylate]
39 nM | O=C(O)c1cn(Cc2ccc(-n3cc(CO)cn3)cc2)c2cccc(F)c2c1=O [Example 59]
181 nM | Cc1nccn1-c1ccc(Cn2cc(C(=O)O)c(=O)c3cccc(F)c32)c(F)c1 [Example 109]
378 nM | CCOC(=O)c1cn(Cc2ccc(-n3cc(C#N)cn3)cc2)c2cccc(F)c2c1=O [Example 155, Ethyl 1-[4-(4-cyano-1H-pyrazol-1-yl)benzyl]-5-fluoro-4-oxo-1,4-dihydroquinoline-3-carboxylate]
1070 nM | CN(C)c1ccc(Cn2cc(C(=O)O)c(=O)c3c(F)cccc32)cc1 [Example 150, 1-[4-(dimethylamino)benzyl]-5-fluoro-4-oxo-1,4-dihydroquinoline-3-carboxylic acid]
2500 nM | O=C(O)c1cn(Cc2ccc(N3CCCC3=O)cc2)c2cccc(F)c2c1=O [Example 3, 5-Fluoro-4-oxo-1-[4-(2-oxopyrrolidin-1-yl)benzyl]-1,4-dihydroquinoline-3-carboxylic acid]
40 nM | O=C(O)c1cn(Cc2ccc(-n3ccc4ncccc43)cc2)c2cccc(F)c2c1=O [Example 36]
25 nM | C=Cc1cnn(-c2ccc(Cn3cc(C(=O)OCC)c(=O)c4c(F)cccc43)cc2)c1 [Example 156, Ethyl 5-fluoro-4-oxo-1-[4-(4-vinyl-1H-pyrazol-1-yl)benzyl]-1,4-dihydroquinoline-3-carboxylate]
40 nM | O=C(O)c1cn(Cc2ccc(-n3cnc(-c4ccccc4)c3)cc2)c2cccc(F)c2c1=O [Example 31]
261 nM | O=C(O)c1cn(Cc2ccc(-n3cccn3)cc2)c2c(F)ccc(F)c2c1=O [Example 1]
31 nM | O=C(O)c1cn(Cc2ccc(-n3cc(CF)cn3)cc2)c2cccc(F)c2c1=O [Example 62]
45 nM | CC(=O)c1cn(-c2ccc(Cn3cc(C(=O)O)c(=O)c4cccc(F)c43)c(F)c2)c2ccccc12 [Example 120]
32 nM | O=C(O)c1cn(Cc2ccc(-n3cc(CCO)cn3)cc2)c2cccc(F)c2c1=O [Example 19]
749 nM | CNc1ccc(Cn2cc(C(=O)O)c(=O)c3c(F)cccc32)cc1 [Example 149, 5-Fluoro-1-[4-(methylamino)benzyl]-4-oxo-1,4-dihydroquinoline-3-carboxylic acid]
308 nM | CC(C)C(=O)Nc1ccc(Cn2cc(C(=O)O)c(=O)c3c(F)cccc32)cc1 [Example 4, 5-Fluoro-1-[4-(isobutyrylamino)benzyl]-4-oxo-1,4-dihydroquinoline-3-carboxylic acid]
41 nM | O=C(O)c1cn(Cc2ccc(-n3ccc(CF)n3)cc2)c2cccc(F)c2c1=O [Example 152, 5-Fluoro-1-{4-[3-(fluoromethyl)-1H-pyrazol-1-yl]benzyl}-4-oxo-1,4-dihydroquinoline-3-carboxylic acid]
